Experimental data published in patent US7560458B2, “Triazolopyrimidine derivatives as glycogen synthase kinase 3 inhibitors” (Janssen Pharmaceutica, N.V., priority 2003, dated 2009).

Tests used:
GSK3β = GSK3β (Homo sapiens, UniProt P49841); assay: GSK3beta assay (SPA, biotinylated phosphorylated CREB peptide, ATP-P33); assay type: biochemical; conditions: −log IC50 (M); given as ranges (>8; 7-8; <7); read-out: pIC50 (GSK3beta) (converted)
Description: (§1) GSK3beta assays were performed at room temperature in a 100 μl reaction volume of 25 mM Tris (ph 7.4) containing 10 mM MgCl2.6H2O 1 mM DTT, 0.1 mg/ml BSA, 5% glyceol and containing 5.7 ng/μl GSK3β, 5 μM biotinylated phosphorylated CREB peptide, 1 μM APT, 0.85 μCi/ml ATP-P^33 and a suitable amount of a test compound of formula (I). After one hour, the reaction was terminated by adding 70 μl of Stop mix (0.1 mM APT, 5 mg/ml streptavidin coated PVT SPA bead pH 11.0). The beads to which the phosphorylated CREB peptide is attached were allowed to settle overnight and the radioactivity of the beads was counted in a microtiterplate scintillation counter and compared with the results obtained in a control experiment (without the presence of a test compound) in order to determine the percentage of GSK3β inhibition. The IC50 value, i.e. the concentration (M) of the test compound at which 50% of GSK3β is inhibited, was calculated from the dose response curve obtained by performing the above-described GSKK3β assay in the presence of different amounts of the test compound.

GSK3alpha = GSK3alpha (Homo sapiens, UniProt P49840); assay: GSK3alpha assay (same as the GSK3beta assay, GSK3alpha 0.25 ng/μl); assay type: biochemical; conditions: −log IC50 (M); given as ranges (>8; 7-8; <7); read-out: pIC50 (GSK3alpha) (converted)
Chain of GSK3alpha (P49840 whole entry, species assumed): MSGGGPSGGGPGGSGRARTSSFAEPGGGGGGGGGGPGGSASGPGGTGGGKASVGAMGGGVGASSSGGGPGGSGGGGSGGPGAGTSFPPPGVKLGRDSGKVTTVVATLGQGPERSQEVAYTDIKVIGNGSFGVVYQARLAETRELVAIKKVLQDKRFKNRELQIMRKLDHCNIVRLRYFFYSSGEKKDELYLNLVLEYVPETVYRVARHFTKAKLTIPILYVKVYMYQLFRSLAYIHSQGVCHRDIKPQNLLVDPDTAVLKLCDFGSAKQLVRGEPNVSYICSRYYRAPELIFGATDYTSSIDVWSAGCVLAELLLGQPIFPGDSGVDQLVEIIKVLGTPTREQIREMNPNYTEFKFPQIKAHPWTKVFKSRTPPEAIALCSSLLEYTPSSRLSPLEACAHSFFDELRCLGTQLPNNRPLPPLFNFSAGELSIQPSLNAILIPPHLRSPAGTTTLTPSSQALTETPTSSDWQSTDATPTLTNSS
Description: as §1
The GSK3alpha assay was performed in the same way as described above for the GSK3beta assay except for the concentration of GSK3alpha which is 0.25 ng/μl.

Chain of GSK3β (P49841 whole entry, species assumed): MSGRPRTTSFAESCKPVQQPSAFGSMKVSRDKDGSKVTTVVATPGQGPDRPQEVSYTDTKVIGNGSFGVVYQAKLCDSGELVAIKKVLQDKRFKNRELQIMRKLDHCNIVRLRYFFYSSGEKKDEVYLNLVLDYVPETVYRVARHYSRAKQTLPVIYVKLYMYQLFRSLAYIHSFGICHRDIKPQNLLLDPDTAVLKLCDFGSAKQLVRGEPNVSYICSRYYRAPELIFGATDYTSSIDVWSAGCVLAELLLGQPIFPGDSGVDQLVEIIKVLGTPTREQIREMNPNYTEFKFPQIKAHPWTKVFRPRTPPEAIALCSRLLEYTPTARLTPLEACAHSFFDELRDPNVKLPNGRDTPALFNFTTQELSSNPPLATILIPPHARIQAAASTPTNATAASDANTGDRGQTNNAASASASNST

| Compound | IC50 (GSK3β) [M] | IC50 (GSK3alpha) [M] |
| --- | --- | --- |
| CS(=O)(=O)Nc1cccc(Nc2ncc3nnn(-c4cccc(CC#N)c4)c3n2)c1 [Compound 264] | < 1e-08 | < 1e-08 |
| COCc1cccc(Nc2ncc3nnn(-c4cccc(COC)c4)c3n2)c1 [Compound 132] | < 1e-08 | < 1e-08 |
| NS(=O)(=O)c1cccc(Nc2ncc3nnn(-c4cccc(CO)c4)c3n2)c1 [Compound 36] | < 1e-08 | < 1e-08 |
| COc1cc(Nc2ncc3nnn(-c4cccc(CCO)c4)c3n2)ccc1F [Compound 171] | < 1e-08 | < 1e-08 |
| CCOc1ccc(Nc2ncc3nnn(-c4ccccc4)c3n2)cn1 [Compound 82] | 1e-08 to 1e-07 | < 1e-08 |
| COCc1cccc(-n2nnc3cnc(Nc4cccc(S(=O)(=O)NCCNC(C)=O)c4)nc32)c1 [Compound 154] | 1e-08 to 1e-07 | 1e-08 to 1e-07 |
| CNC(=O)c1ccc(Nc2ncc3nnn(-c4cccc(COCCOC)c4)c3n2)cc1 [Compound 327] | < 1e-08 | < 1e-08 |
| N#CCc1cccc(-n2nnc3cnc(Nc4cccc(CO)c4)nc32)c1 [Compound 277] | < 1e-08 | < 1e-08 |
| NC(=O)Cc1cccc(-n2nnc3cnc(Nc4cccc(C(=O)NCCO)c4)nc32)c1 [Compound 271] | < 1e-08 | < 1e-08 |
| COCc1cccc(Nc2ncc3nnn(-c4cccc(CCO)c4)c3n2)c1 [Compound 168] | < 1e-08 | < 1e-08 |
| N#CCc1cccc(-n2nnc3cnc(Nc4ccc(CN)cc4)nc32)c1 [Compound 313] | < 1e-08 | < 1e-08 |
| CCOC(=O)NCc1cccc(-n2nnc3cnc(Nc4ccc(CCO)cc4)nc32)c1 [Compound 220] | < 1e-08 | < 1e-08 |
| CC(=O)NCc1cccc(-n2nnc3cnc(Nc4cccc(NS(C)(=O)=O)c4)nc32)c1 [Compound 99] | < 1e-08 | < 1e-08 |
| CN(C)S(=O)(=O)c1cccc(Nc2ncc3nnn(-c4cccc(F)c4)c3n2)c1 [Compound 94] | < 1e-08 | < 1e-08 |
| CC(=O)NCc1cccc(-n2nnc3cnc(Nc4cccc(S(=O)(=O)NCCO)c4)nc32)c1 [Compound 131] | 1e-08 to 1e-07 | 1e-08 to 1e-07 |
| CC(=O)c1cccc(Nc2ncc3nnn(-c4cccc(S(N)(=O)=O)c4)c3n2)c1 [Compound 64] | < 1e-08 | < 1e-08 |
| CNC(=O)c1ccc(Nc2ncc3nnn(-c4cccc(COC)c4)c3n2)cc1 [Compound 333] | < 1e-08 | < 1e-08 |
| O=C(O)c1ccc(Nc2ncc3nnn(-c4cccc(CNC(=O)C56CC7CC(CC(C7)C5)C6)c4)c3n2)cc1 [Compound 239] | 1e-08 to 1e-07 | 1e-08 |
| CC(=O)NCc1cccc(Nc2ncc3nnn(-c4cccc(F)c4)c3n2)c1 [Compound 73] | < 1e-08 | < 1e-08 |
| CS(=O)(=O)Nc1cccc(Nc2ncc3nnn(-c4cccc(CO)c4)c3n2)c1 [Compound 62] | < 1e-08 | < 1e-08 |
| COCc1cccc(-n2nnc3cnc(Nc4ccc(Cl)cc4)nc32)c1 [Compound 338] | < 1e-08 | < 1e-08 |

| Compound | IC50 (GSK3β) [M] | IC50 (GSK3alpha) [M] |
| --- | --- | --- |
| CC(=O)NCc1cccc(-n2nnc3cnc(Nc4cccc(CO)c4)nc32)c1 [Compound 110] | < 1e-08 | < 1e-08 |
| OCc1cccc(Nc2ncc3nnn(-c4cccc(CO)c4)c3n2)c1 [Compound 54] | < 1e-08 | < 1e-08 |
| CC(=O)Nc1cccc(Nc2ncc3nnn(-c4cccc(S(N)(=O)=O)c4)c3n2)c1 [Compound 63] | < 1e-08 | < 1e-08 |
| CC(C)CC(=O)NCc1cccc(-n2nnc3cnc(Nc4cccc(C#N)c4)nc32)c1 [Compound 185] | < 1e-08 | < 1e-08 |
| Fc1cccc(-n2nnc3cnc(Nc4ccc(CNCC(F)(F)F)cc4)nc32)c1 [Compound 306] | < 1e-08 | < 1e-08 |
| O=C(O)c1cc(Nc2ncc3nnn(-c4cccc(F)c4)c3n2)ccc1O [Compound 71] | 1e-08 to 1e-07 | < 1e-08 |
| CCOC(=O)NCc1cccc(-n2nnc3cnc(Nc4ccc(OC)nc4)nc32)c1 [Compound 221] | < 1e-08 | < 1e-08 |
| COCCOc1cccc(-n2nnc3cnc(Nc4ccc(C(=O)N(C)C)cc4)nc32)c1 [Compound 326] | 1e-08 to 1e-07 | 1e-08 to 1e-07 |
| COCCOCc1cccc(-n2nnc3cnc(Nc4ccc(C(=O)N(C)C)cc4)nc32)c1 [Compound 328] | < 1e-08 | < 1e-08 |
| NCc1cccc(Nc2ncc3nnn(-c4cccc(F)c4)c3n2)c1 [Compound 79] | 1e-08 to 1e-07 | 1e-08 to 1e-07 |
| CC(C)CC(=O)NCc1cccc(-n2nnc3cnc(Nc4ccc(C(=O)NCC(=O)O)cc4)nc32)c1 [Compound 192] | < 1e-08 | < 1e-08 |
| CC(=O)NCc1cccc(Nc2ncc3nnn(-c4cccc(CNC(C)=O)c4)c3n2)c1 [Compound 108] | < 1e-08 | < 1e-08 |
| CC(=O)NCc1cccc(Nc2ncc3nnn(-c4ccccc4)c3n2)c1 [Compound 75] | 1e-08 to 1e-07 | < 1e-08 |
| COCc1cccc(-n2nnc3cnc(Nc4cccc(C(C)=O)c4)nc32)c1 [Compound 86] | < 1e-08 | < 1e-08 |
| COCCOc1cccc(-n2nnc3cnc(Nc4ccc(CNC(=O)OC(C)(C)C)cc4)nc32)c1 [Compound 302] | 1e-08 to 1e-07 | < 1e-08 |
| COc1cccc(-n2nnc3cnc(Nc4cccc(C(C)O)c4)nc32)c1 (stereo not drawn) [Compound 43] | < 1e-08 | < 1e-08 |
| COC(=O)c1cc(Nc2ncc3nnn(-c4cccc(F)c4)c3n2)ccc1N [Compound 134] | < 1e-08 | < 1e-08 |
| COCc1cccc(Nc2ncc3nnn(-c4cccc(CC#N)c4)c3n2)c1 [Compound 266] | < 1e-08 | < 1e-08 |
| CNS(=O)(=O)c1cccc(Nc2ncc3nnn(-c4cccc(F)c4)c3n2)c1 [Compound 95] | < 1e-08 | < 1e-08 |
| NCc1ccc(Nc2ncc3nnn(-c4cccc(F)c4)c3n2)cc1 [Compound 295] | 1e-08 | < 1e-08 |
| COCc1cccc(Nc2ncc3nnn(-c4cccc(CNC(=O)CC(C)C)c4)c3n2)c1 [Compound 188] | < 1e-08 | < 1e-08 |

| Compound | IC50 (GSK3β) [M] | IC50 (GSK3alpha) [M] |
| --- | --- | --- |
| COC(=O)c1cccc(-n2nnc3cnc(Nc4cccc(CNC(C)=O)c4)nc32)c1 [Compound 74] | 1e-08 | < 1e-08 |
| COCCOc1cccc(-n2nnc3cnc(Nc4cccc(CNC(=O)OC(C)(C)C)c4)nc32)c1 [Compound 303] | 1e-08 to 1e-07 | < 1e-08 |
| N#Cc1cccc(Nc2ncc3nnn(-c4ccccc4)c3n2)c1 [Compound 34] | < 1e-08 | < 1e-08 |
| NCCc1ccc(Nc2ncc3nnn(-c4cccc(CCO)c4)c3n2)cc1 [Compound 316] | < 1e-08 | < 1e-08 |
| NS(=O)(=O)c1ccc(Nc2ncc3nnn(-c4cccc(F)c4)c3n2)cc1 [Compound 145] | < 1e-08 | < 1e-08 |
| CCOC(=O)NCc1cccc(-n2nnc3cnc(Nc4ccc(CC(=O)O)cc4)nc32)c1 [Compound 219] | < 1e-08 | < 1e-08 |
| O=C(O)CNC(=O)c1ccc(Nc2ncc3nnn(-c4cccc(CNC(=O)C5CC5)c4)c3n2)cc1 [Compound 205] | < 1e-08 | < 1e-08 |
| COCc1cccc(-n2nnc3cnc(Nc4ccc(C(=O)O)c(Cl)c4)nc32)c1 [Compound 138] | < 1e-08 | < 1e-08 |
| CNC(=O)c1cccc(Nc2ncc3nnn(-c4cccc(F)c4)c3n2)c1 [Compound 24] | < 1e-08 | < 1e-08 |
| COCc1cccc(-n2nnc3cnc(Nc4cccc(NS(C)(=O)=O)c4)nc32)c1 [Compound 84] | < 1e-08 | < 1e-08 |
| CS(=O)(=O)Nc1cccc(Nc2ncc3nnn(-c4cccc(CCO)c4)c3n2)c1 [Compound 256] | < 1e-08 | < 1e-08 |
| CNC(=O)c1ccc(Nc2ncc3nnn(-c4cccc(CCO)c4)c3n2)cc1 [Compound 329] | < 1e-08 | < 1e-08 |
| OCCc1ccc(Nc2ncc3nnn(-c4cccc(F)c4)c3n2)cc1 [Compound 147] | < 1e-08 | < 1e-08 |
| NCc1cccc(Nc2ncc3nnn(-c4ccccc4)c3n2)c1 [Compound 78] | 1e-08 to 1e-07 | 1e-08 to 1e-07 |
| O=C(O)c1ccc(Nc2ncc3nnn(-c4cccc(F)c4)c3n2)cc1 [Compound 30] | < 1e-08 | < 1e-08 |
| CS(=O)(=O)Nc1cccc(Nc2ncc3nnn(-c4cccc(CC(=O)O)c4)c3n2)c1 [Compound 180] | 1e-08 to 1e-07 | 1e-08 to 1e-07 |
| COCCOc1cccc(-n2nnc3cnc(Nc4ccc(F)cc4)nc32)c1 [Compound 301] | 1e-08 to 1e-07 | < 1e-08 |
| COCC(=O)NCc1cccc(-n2nnc3cnc(Nc4cccc(NC(C)=O)c4)nc32)c1 [Compound 156] | < 1e-08 | < 1e-08 |
| CS(=O)(=O)Nc1cccc(Nc2ncc3nnn(-c4cccc(F)c4)c3n2)c1 [Compound 45] | < 1e-08 | < 1e-08 |
| CC(C)(C)OC(=O)NCc1cccc(-n2nnc3cnc(Nc4ccc(F)cc4)nc32)c1 [Compound 270] | < 1e-08 | < 1e-08 |
| NS(=O)(=O)c1ccc(Nc2ncc3nnn(-c4cccc(CC(=O)O)c4)c3n2)cc1 [Compound 160] | 1e-08 to 1e-07 | 1e-08 to 1e-07 |
